Measurements taken from patent US4426382A, “4-Amino-6,7-dimethoxy-2-piperazinylquinazoline derivatives, their preparation and use” (Sankyo Company Limited, priority 1980, dated 1984).
Where a name gives a salt, the structure may show the parent alone.

Tested on: spontaneously hypertensive rats
Test: antihypertensive activity: blood pressure after oral administration to conscious spontaneously hypertensive rats
Format: in vivo
Settings: male spontaneously hypertensive rats
Experimental: The animals used in this test were 15 week old male spontaneously hypertensive rats. 3-5 rats were used to test each concentration of each compound. Each animal was treated as follows. […] A polyethylene cannula was then inserted into the abdominal aorta by the method of Weeks and Jones [J. R. Weeks and J. A. Jones, Proc. Soc. […] The other end of the cannula, leading out of the body, was fixed to the neck. One week after the operation, when the animal had recovered from post-operative invasion, this end of the cannula was connected to an apparatus to measure the blood pressure and heart beat directly without the need for any further anesthesia or restraint. The haemomanometer used was an improved type of that originated by Laffan et al. [P. J. Laffan, A. Peterson, S. W. Hitch and C.
The compound under test was suspended at the desired concentration in a 0.3% w/v aqueous solution of carboxymethylcellulose and administered orally in a volume of 2 ml/kg body weight. […] After administration of the sample, the blood pressure and heart beat of each animal were measured for 24 hours at 15 minute intervals.
For purposes of comparison, the same experiment was carried out with various concentrations of the known hypotensive agent, prazosin, in the form of its hydrochloride.
Δmax =Maximum change in blood pressure (mm/Hg) after administration of the compound under test;
Tmax =Time (in hours) after administration of the compound under test required for the blood pressure to obtain a maximum change;
T0.5 max =Time (in hours) after administration of the compound under test for the blood pressure to return to one-half of its maximum value.

SMILES | T0.5 max, time after administration for the blood pressure to return to one-half of its maximum value (dose 3 mg/kg oral) [h] | Tmax, time after administration required for the blood pressure to obtain a maximum change (dose 3 mg/kg oral) [h] | Δmax, maximum change in blood pressure after administration (dose 3 mg/kg oral) [mmHg] | T0.5 max, time after administration for the blood pressure to return to one-half of its maximum value (dose 10 mg/kg oral) [h] | Tmax, time after administration required for the blood pressure to obtain a maximum change (dose 10 mg/kg oral) [h] | Δmax, maximum change in blood pressure after administration (dose 10 mg/kg oral) [mmHg] | T0.5 max, time after administration for the blood pressure to return to one-half of its maximum value (dose 30 mg/kg oral) [h] | Tmax, time after administration required for the blood pressure to obtain a maximum change (dose 30 mg/kg oral) [h] | Δmax, maximum change in blood pressure after administration (dose 30 mg/kg oral) [mmHg] | T0.5 max, time after administration for the blood pressure to return to one-half of its maximum value (dose 3 mg/kg oral, 3 mg/kg) [h] | T0.5 max, time after administration for the blood pressure to return to one-half of its maximum value (dose 30 mg/kg oral, 30 mg/kg) [h] | Tmax, time after administration required for the blood pressure to obtain a maximum change (dose 30 mg/kg oral, 30 mg/kg) [h] | Δmax, maximum change in blood pressure after administration (dose 30 mg/kg oral, 30 mg/kg) [mmHg] | T0.5 max, time after administration for the blood pressure to return to one-half of its maximum value (dose 1 mg/kg oral) [h] | Tmax, time after administration required for the blood pressure to obtain a maximum change (dose 1 mg/kg oral) [h] | Δmax, maximum change in blood pressure after administration (dose 1 mg/kg oral) [mmHg]
COc1cc2nc(N3CCN(C(=O)[C@@H]4C[C@H]4c4ccccc4)CC3)nc(N)c2cc1OC (relative stereo) [34 hydrochloride hydrate] | 8 | 1 | -33 | 12 | 2 | -50 |  |  |  |  |  |  |  |  |  | 
CC=CC(=O)N1CCN(c2nc(N)c3cc(OC)c(OC)cc3n2)CC1 [1 hydrochloride hydrate] | 8 | 0.25 | -35 |  |  |  | 12 | 0.5 | -40 |  |  |  |  |  |  | 
CCC=CC(=O)N1CCN(c2nc(N)c3cc(OC)c(OC)cc3n2)CC1 [5 hydrochloride] |  | 0.5 | -40 |  |  |  |  |  |  | 7 | 14 | 0.75 | -48 |  |  | 
CC=CC(=O)N1CCCN(c2nc(N)c3cc(OC)c(OC)cc3n2)CC1 [9 hydrochloride hydrate] | 3.5 | 0.5 | -25 |  |  |  | 5 | 0.75 | -35 |  |  |  |  |  |  | 
COc1cc2nc(N3CCN(C(=O)c4ccc(OCc5ccccc5)cc4)CC3)nc(N)c2cc1OC [14 hydrochloride dihydrate] | 9.5 | 6 | -18 | 12 | 6 to 7 | -29 | 15 | 6 to 7 | -35 |  |  |  |  |  |  | 
COc1cc2nc(N3CCN(C(=O)C(C)Oc4ccccc4)CC3)nc(N)c2cc1OC (stereo not drawn) [25 hydrochloride hemihydrate] | 14 | 1 | -70 |  |  |  |  |  |  |  |  |  |  | 7 | 1 | -40
COc1cc2nc(N3CCN(C(=O)COc4ccccc4)CC3)nc(N)c2cc1OC [27 hydrochloride hydrate] | 8 | 5 | -20 |  |  |  | 8 | 5 | -40 |  |  |  |  |  |  | 
